Consider 43 compounds from patent US9340577B2, “HLA binding motifs and peptides and their uses” (priority 1992, dated 2016).

Like-named read-outs stand apart in the source and are kept apart here. No end group written: not given here. A value given as a limit tells only on which side of the number the result lay.

For assay [1], the target named is DRB1*0405 (Homo sapiens, UniProt P01903+P01911, A100R/A169T/D86S/F76Y/I96L/K127E/L162R/M171V/N62H/P40V/Q125Y/R42H/S133A/S149N/S66Y/V115G/V209L/W38E). Briefly: biochemical. In kind it is binding.
Assay [2] deals with DR1 (DRB1*0101) (Homo sapiens, UniProt P01903+P01911, A100R/D57E/F55L/F60I/F76Y/I96L/L162R/M171V/P40L/Q125E/R42F/V115G/Y59C). Description: biochemical. In kind it is binding.
Assay [3] concerns the target DR4w4 (DRB1*0401) (Homo sapiens, UniProt P01903+P01911, A100K/A169T/F76Y/I96L/K127E/L162R/M171V/N62H/P40V/Q125Y/R42H/S133A/S149N/S66Y/V115G/V209L/W38E). Briefly: biochemical. Type of assay: binding.
In assay [4] the target is A2.1 HLA molecules (Homo sapiens, UniProt P04439, D140Y/D185E/D98H/E176V/E277Q/G131W/G231S/I119V/I121R/I166T/I218V/L300P/L318F/N151K/N90K/P208A/P217A/Q86G/Q94H/R138H/R169H/T345S). In kind it is binding. More on the design: A*0201 / A2.1 Binding / A2 Bind. / A2 / A2.1 (binding capacity): scale not given here.
Assay [5] deals with HLA-A1 (A*0101) (Homo sapiens, UniProt P04439, A114D/A174V/A182V/D101N/D185E/E176A/E190D/L180R/Q94H/R68K/S129P/T187R/V100A/V91M/W191G). Description: biochemical. Type of assay: binding.
The target in assay [6] is DR7 (DRB1*0701) (Homo sapiens, UniProt P01903+P01911, A100R/A102G/A103Q/D57E/D86V/E43K/F76Y/K127E/L162R/M171V/P40G/Q125H/Q99D/R33Q/R42Y/R54Q/S133A/S66F/T210M/V115G/Y107V/Y59L/Y89S). Description: biochemical. In kind it is binding.
The target in assay [7] is DRB1*1501 (Homo sapiens, UniProt P01903+P01911). Description: biochemical. In kind it is binding.
Assay [8] deals with DRB1*1101 (Homo sapiens, UniProt P01903+P01911, A100R/A169T/A87E/I96F/K41T/L162R/M171V/P40S/Q125H/Q178H/Q39Y/Q99D/R42S/S66Y/T262R/V115G/W38E). Briefly: biochemical.
In assay [9] the target is DRB5*0101 (Homo sapiens, UniProt P01903+Q30154). Description: biochemical.
Assay [10] addresses DRB1*0901 (Homo sapiens, UniProt P01903+P01911, A100R/A103E/D57H/D86V/F55Y/F60I/F76Y/I96F/K127E/L162R/M171V/P40D/Q125H/Q99R/R33Q/R42F/S133A/S66N/T210M/V115G/W38K/Y107V/Y59G/Y89S). Briefly: biochemical. In kind it is binding.
Assay [11] has as its target DRB1*1302 (Homo sapiens, UniProt P01903+P01911, A100E/A169T/K41T/L162R/M171V/P40S/Q125H/Q178H/Q39Y/Q99D/R42S/S66N/T262R/V115G/W38E/Y61H). Briefly: biochemical. In kind it is binding.
The target of assay [12] is DRB1*0802 (Homo sapiens, UniProt P01903+P01911, A100R/A103L/A169T/F76Y/H45Y/I96F/K41T/L162R/M171V/P40S/Q125H/Q178H/Q39Y/Q99D/R218S/R42G/S66Y/V115G/W38E). Briefly: biochemical. In kind it is binding.
In assay [13] the target is HLA-A3.2 (A*0301) (Homo sapiens, UniProt P04439). Briefly: biochemical. Type of assay: binding. Particulars: HPV 16 E6/E7 9-mers.
Assay [14] deals with HLA-A11 (A*1101) (Homo sapiens, UniProt P04439, A114D/D185E/E176A/F33Y/L180Q/S129P/T187R). Briefly: biochemical. In kind it is binding.

Sequence of DRB1*1302 (P01903 26-254 limits assumed, other chains not shown): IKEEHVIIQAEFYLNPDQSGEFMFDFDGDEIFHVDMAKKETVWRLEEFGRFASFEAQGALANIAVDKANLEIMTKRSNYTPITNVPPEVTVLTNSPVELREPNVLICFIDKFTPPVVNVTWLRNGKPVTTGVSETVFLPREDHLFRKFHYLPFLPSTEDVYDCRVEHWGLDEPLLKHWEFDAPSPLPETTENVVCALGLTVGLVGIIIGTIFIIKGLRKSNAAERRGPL
Sequence of DRB1*1101 (P01903 26-254 limits assumed, other chains not shown): as above

On to RLTVSKLMSQLLNIP [89,0100], for which the figures for the IC50 in assay [1], in assay [2] and in assay [3] were > 20 µM, 10.5 µM and > 20 µM, respectively.
Regarding LLNATDIAV, the “A2 Bind.” value in [4] is 0.0607. This compound also showed an A1 in [5] of 0.0607.
Regarding SLLTFMIAA, the “A2 Bind.” value in [4] is 0.5300. The compound also returned an A1 in assay [5] of 0.5300.
For LLVFACSAV, the “A2 Bind.” value in assay [4] came to 0.0107. The same compound yielded an A1 in assay [5] of 0.0107.
On to NTEVETQQMLQVEGR [Peptide 89.0002], for which the IC50 – broadly, the midpoint of a concentration-inhibition curve – in assay [1] is > 20 µM; in assay [6] it was 1.85 µM; in assay [7], 15.5 µM; in assay [8] (Binding affinity DRB1 *1101), > 20 µM; in [9] (Binding affinity DRB5 *0101), > 20 µM; in assay [10], > 20 µM. The values for the IC50 in assay [11], in assay [2] and in assay [12] were 2.33 µM, 4.98 µM and > 20 µM, respectively.
Take FLAIIWVDL: in assay [4], the “A2 Bind.” value worked out at 0.0233. In addition, the A1 in [5] is given as 0.0233.
For ALTVVWLLV, the “A2 Bind.” value in assay [4] was 0.0390. In assay [5], this compound had an A1 of 0.0390.
Consider NTEVETQQMVQQVES [Peptide 89.0059], for which the IC50 in assay [1], in [6], in [7], in assay [8] (Binding affinity DRB1 *1101), in [9] (Binding affinity DRB5 *0101) and in [10] was > 20 µM throughout. Moreover, the IC50 in [2], in assay [12] and in assay [3] was > 20 µM in each case.
Regarding HMLQLTVWGI, the “A2 Bind.” value in assay [4] stood at 0.0677. In assay [5], the A1 was 0.0677.
For SLCADARMYGV, the “A2 Bind.” value in assay [4] came to 0.0140. The A1 in [5] was 0.0140.
As to NCILLYGPANTGKSY [Peptide 89.0087], the IC50 in assay [1] is 7.34 µM; in assay [6], > 20 µM; in [7], 0.066 µM; in assay [8] (Binding affinity DRB1 *1101), 8.05 µM; in assay [9] (Binding affinity DRB5 *0101), 6.46 µM; in assay [10], > 20 µM. For the same compound, the IC50 came out at 0.11 µM in assay [2], 13.5 µM in assay [12] and 0.28 µM in assay [3].
Take FLGAAGSTM: the “A2 Bind.” value in assay [4] was determined as 0.0190. In [5], this compound yielded an A1 of 0.0190.
For the compound WLWYIKIFI, the “A2 Bind.” value in assay [4] is reported as 0.0355. In assay [5], this compound returned an A1 of 0.0355.
As for LLGRRGWEV, in assay [4], the “A2 Bind.” value was determined as 0.0142. For the same compound, the A1 in [5] is 0.0142.
As to LLNATDIAVA, the “A2 Bind.” value in assay [4] came to 0.0117. This compound also registered an A1 in [5] of 0.0117.
For the compound IISLWDQSL, the “A2 Bind.” value in assay [4] came out at 0.0179. Further, the A1 in assay [5] is listed as 0.0179.
On to LLYKLDIVSI, for which, in assay [4], the “A2 Bind.” value is listed as 0.0245. Also, the A1 in [5] worked out at 0.0245.
In the case of TIIVHLNESV, the “A2 Bind.” value in assay [4] turned out to be 0.0350. The A1 in [5] is recorded as 0.0350.
On to SLLNATDIAV, for which the “A2 Bind.” value in [4] is 0.1050. Moreover, the A1 in assay [5] is recorded as 0.1050.
As to GLVGLRIVFA, the “A2 Bind.” value in assay [4] was determined as 0.0195. The A1 in assay [5] amounted to 0.0195.
For TNCMLIQPPKLRSTA [89,0046], the IC50 was found to be 3.22 µM in [1], 0.017 µM in [2] and 1.86 µM in assay [3].
Regarding VADKALKFY [Peptide E6-69], in [13], the “binding to HLA-A3.2 (in words)” value is “bound”. In addition, in assay [14], the “binding class for HLA-A11.2” value is on record as “weak affinity” and the “binding to HLA-A11.2 (in words)” value is listed as “bound”. The “binding to HLA-A1 (in words)” value in assay [5] is “bound”.
ALFLGFLGAA: the “A2 Bind.” value in [4] was found to be 0.4950. Moreover, the A1 in [5] was found to be 0.4950.
As for TVWGIKQLQA, in assay [4], the “A2 Bind.” value turned out to be 0.0150. The compound also came in with an A1 in [5] of 0.0150.
In the case of ALLYKLDIV, the “A2 Bind.” value in [4] was found to be 0.0362. Moreover, the A1 in assay [5] amounted to 0.0362.
As for FMIAATYNFAV, the “A2 Bind.” value in assay [4] amounted to 0.4950. This compound also displayed an A1 in assay [5] of 0.4950.
Regarding LLIAARIVEL, in [4], the “A2 Bind.” value was 0.1550. In assay [5], this compound had an A1 of 0.1550.
For RMYGVLPWI, the “A2 Bind.” value in [4] stood at 0.1650. This compound also showed an A1 in assay [5] of 0.1650.
As for MLQLTVWGI, the “A2 Bind.” value in assay [4] amounted to 0.2450. In [5], this compound came in with an A1 of 0.2450.
Consider IMIVGGLVGL, for which the “A2 Bind.” value in assay [4] came out at 0.0252. Also, the A1 in assay [5] was found to be 0.0252.
In the case of YLVCGERGFFYTKPT [Peptide 9000.0079], the values for the IC50 in [1], in assay [12] and in [3] were > 30.1 µM, > 54.4 µM and > 20.5 µM, respectively.
For `CC(C)C[C@H](NC(=O)[C@H](CC(C)C)NC(=O)[C@@H]1CCCN1C(=O)[C@@H](N)CC(N)=O)C(=O)NCC(=O)N[C@@H](C)C(=O)N[C@@H](C)C(=O)N[C@H](C(=O)N1CCC[C@H]1C(=O)N[C@H](C(=O)NCC(=O)N[C@@H](CC(N)=O)C(=O)N[C@@H](CC(N)=O)C(=O)N[C@@H](CCCCN)C(=O)N[C@@H](CCCNC(=N)N)C(=O)O)[C@@H](C)O)[C@@H](C)O` [Peptide 89.0165], the IC50 in assay [1] is 8.25 µM; in assay [6], > 20 µM; in assay [8] (Binding affinity DRB1 *1101) it was > 20 µM; in assay [9] (Binding affinity DRB5 *0101), > 20 µM; in [10], 9.38 µM; in assay [11], > 20 µM. In addition, the results for the IC50 in [2], in assay [12] and in [3] were 0.655 µM, > 20 µM and 1.24 µM, respectively.
LLQYWSQEL: in [4], the “A2 Bind.” value is 0.0265. The A1 in assay [5] is on record as 0.0265.
In the case of FLYGALLLA, the “A2 Bind.” value in assay [4] is given as 1.9000. Besides, in assay [5], the A1 is 1.9000.
Take GLLECCARCLV: the “A2 Bind.” value in [4] is 0.0515. For the same compound, in assay [5], the A1 is reported as 0.0515.
On to TLQCKIKQII, for which, in assay [4], the “A2 Bind.” value amounted to 0.0200. Moreover, the A1 in [5] worked out at 0.0200.
For the compound FIMIVGGLV, the “A2 Bind.” value in [4] was 0.0131. In assay [5], this compound displayed an A1 of 0.0131.
On to IKFFQGSVISFVNSQ [Peptide 89.0136], for which the IC50 in assay [1] was > 20 µM; in [6] it was > 20 µM; in [7], > 20 µM; in assay [8], > 20 µM; in [9] it was 5.5 µM; in assay [10], > 20 µM. In addition, the IC50 in [11] was 0.011 µM; in assay [2], > 20 µM; in assay [12], > 20 µM.
For FLYGALLL, in assay [4], the “A2 Bind.” value was 0.0345. Besides, in assay [5], the A1 was found to be 0.0345.
IAATYNFAV: the “A2 Bind.” value in [4] came to 0.0540. In [5], the A1 is listed as 0.0540.
Consider RVIEVLQRA, for which the “A2 Bind.” value in [4] is 0.1963. In addition, in assay [5], the A1 is recorded as 0.1963.
As to AVLSIVNRV, the “A2 Bind.” value in [4] turned out to be 0.0132. The A1 in assay [5] is listed as 0.0132.
Consider ALFLGFLGA, for which the “A2 Bind.” value in assay [4] came to 0.0945. In assay [5], the A1 is given as 0.0945.
